Assay results reported in ChEMBL document CHEMBL4385643, “Design of a brain-penetrant CDK4/6 inhibitor for glioblastoma” (Bioorg Med Chem Lett, 2019).

How the values were obtained:
CDK4/Cyclin D3 = CDK4/Cyclin D3 (Homo sapiens, UniProt P11802)
Description: Inhibition of human full length GST-tagged CDK4 (1 to 303(end) amino acids)/Cyclin D3 (1 to 292(end) amino acids) expressed in baculovirus expression system assessed as inhibition constant using Ulight-4E-BP1 as substrate preincubated for 30 mins followed by substrate addition and incubated for 90 mins by TR-FRET assay

CDK6/cyclin D3 = CDK6/cyclin D3 (Homo sapiens, UniProt Q00534)
Description: Inhibition of human full length GST-tagged CDK6 (1 to 326(end) amino acids)/Cyclin D3 (1 to 292(end) amino acids) expressed in baculovirus expression system assessed as inhibition constant using Ulight-4E-BP1 as substrate preincubated for 30 mins followed by substrate addition and incubated for 90 mins by TR-FRET assay

CDK1/Cyclin A = CDK1/Cyclin A (Homo sapiens, UniProt P06493)
Description: Inhibition of human recombinant full length GST-tagged CDK1/Cyclin A2 expressed in sf9 insect cells assessed as inhibition constant using Ulight-4E-BP1 as substrate preincubated for 30 mins followed by substrate addition and incubated for 90 mins by TR-FRET assay

[1] = target: Cyclin-dependent kinase 2/cyclin E1 (Homo sapiens, UniProt P24941); experiment: Inhibition of human full length GST-tagged CDK2 (1 to 298(end) amino acids)/Cyclin E1 (1 to 410(end) amino acids) expressed in baculovirus expression system assessed as inhibition constant using Ulight-4E-BP1 as substrate preincubated for 30 mins followed by substrate addition and incubated for 90 mins by TR-FRET assay
[2] = Lipophilicity, log D of the compound by microscale shake flask method; format: physicochemical; conditions: octanol/water
mouse Bcrp1 = experiment: in vitro; conditions: dog
Description: Efflux ratio in MDCK2 expressing mouse bcrp1

human MDR1 = experiment: in vitro; conditions: dog, MDCK-MDR1
Description: Efflux ratio in gMDCKI cells expressing human MDR1

CDK4/Cyclin D3, sequence (P11802 whole entry): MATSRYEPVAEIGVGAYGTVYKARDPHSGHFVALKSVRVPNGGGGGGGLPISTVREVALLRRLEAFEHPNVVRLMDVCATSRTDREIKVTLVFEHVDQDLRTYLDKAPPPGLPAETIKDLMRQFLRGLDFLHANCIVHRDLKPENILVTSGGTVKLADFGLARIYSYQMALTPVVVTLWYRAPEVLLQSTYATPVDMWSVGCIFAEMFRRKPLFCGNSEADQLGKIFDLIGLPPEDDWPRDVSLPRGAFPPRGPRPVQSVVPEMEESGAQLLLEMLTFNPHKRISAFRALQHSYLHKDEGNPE
CDK4/Cyclin D3, sequence (P30281 whole entry, further chain): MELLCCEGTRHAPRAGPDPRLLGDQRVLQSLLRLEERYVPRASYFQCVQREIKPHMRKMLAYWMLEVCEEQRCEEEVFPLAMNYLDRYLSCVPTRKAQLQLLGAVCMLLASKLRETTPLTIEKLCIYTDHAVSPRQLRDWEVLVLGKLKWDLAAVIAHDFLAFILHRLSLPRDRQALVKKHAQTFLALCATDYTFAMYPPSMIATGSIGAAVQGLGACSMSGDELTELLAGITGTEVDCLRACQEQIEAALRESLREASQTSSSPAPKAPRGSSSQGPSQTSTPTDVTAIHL
CDK6/cyclin D3, sequence (P30281 whole entry): as the sequence (P30281 whole entry, further chain) above
CDK6/cyclin D3, sequence (Q00534 whole entry): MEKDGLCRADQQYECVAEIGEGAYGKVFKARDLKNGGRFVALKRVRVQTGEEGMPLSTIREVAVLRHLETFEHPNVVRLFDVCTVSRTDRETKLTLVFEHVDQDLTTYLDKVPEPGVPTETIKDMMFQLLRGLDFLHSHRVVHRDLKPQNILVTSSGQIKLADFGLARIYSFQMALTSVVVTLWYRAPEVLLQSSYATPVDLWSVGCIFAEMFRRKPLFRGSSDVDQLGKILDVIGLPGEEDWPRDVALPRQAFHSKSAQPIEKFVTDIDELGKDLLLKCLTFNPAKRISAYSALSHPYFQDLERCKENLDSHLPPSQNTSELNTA
CDK1/Cyclin A, sequence (P06493 whole entry): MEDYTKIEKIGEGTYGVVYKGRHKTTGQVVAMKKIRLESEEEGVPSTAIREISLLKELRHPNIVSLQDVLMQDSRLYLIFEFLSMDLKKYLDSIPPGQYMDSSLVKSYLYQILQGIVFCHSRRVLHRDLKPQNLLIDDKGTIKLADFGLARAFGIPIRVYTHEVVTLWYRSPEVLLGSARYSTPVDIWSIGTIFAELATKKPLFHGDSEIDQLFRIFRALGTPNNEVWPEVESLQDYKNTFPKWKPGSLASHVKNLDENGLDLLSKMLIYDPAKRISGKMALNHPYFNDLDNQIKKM
CDK1/Cyclin A, sequence (P20248 whole entry, further chain): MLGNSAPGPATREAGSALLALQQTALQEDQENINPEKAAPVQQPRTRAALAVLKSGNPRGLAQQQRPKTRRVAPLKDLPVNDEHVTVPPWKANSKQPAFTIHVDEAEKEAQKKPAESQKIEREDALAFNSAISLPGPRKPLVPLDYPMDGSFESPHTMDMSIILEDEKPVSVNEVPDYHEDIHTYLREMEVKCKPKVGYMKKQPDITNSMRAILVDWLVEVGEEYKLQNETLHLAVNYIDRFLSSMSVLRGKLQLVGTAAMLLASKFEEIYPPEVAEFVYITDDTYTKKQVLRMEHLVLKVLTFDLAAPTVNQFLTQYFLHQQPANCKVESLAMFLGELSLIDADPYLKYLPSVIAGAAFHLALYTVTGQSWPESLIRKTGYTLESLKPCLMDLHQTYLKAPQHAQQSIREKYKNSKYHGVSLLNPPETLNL

SMILES | Ki (CDK4/Cyclin D3) [µM] | Ki (CDK6/cyclin D3) [µM] | Ki (CDK1/Cyclin A) [µM] | Ki [1] [µM] | logD [2] | efflux ratio (mouse Bcrp1) | efflux ratio (human MDR1)
CC(C)c1c(-c2nc(Nc3ccc(N4CCN(C)CC4)cn3)ncc2F)cnn1C | 0.0027 | 0.032 | 0.53 |  |  |  | 
C[C@@H]1CCCn2ncc(-c3nc(Nc4ccc(N5CCN(C)CC5)cn4)ncc3F)c21 | 0.0014 | 0.019 | 0.77 |  |  |  | 
C[C@@H]1CCCCn2ncc(-c3nc(Nc4ccc(N5CC6(CN(CCCF)C6)C5)cn4)ncc3F)c21 | < 0.0003 | 0.0033 | 0.11 |  |  |  | 
CCN1CCN(Cc2ccc(Nc3ncc(F)c(-c4cnn5c4[C@H](C)CCCC5)n3)nc2)CC1 | 0.0013 | 0.037 | 0.63 |  |  |  | 
COCCN1CCC(Nc2nccc(-c3cnn4c3CCCC4)n2)CC1 | 0.21 | 7.4 | 5.2 | 7.5 |  |  | 
CN1CCN(c2ccc(Nc3nccc(-c4cnn5c4CCCC5)n3)nc2)CC1 | 0.061 | 1.9 | 29 | 15 |  |  | 
C[C@H]1CCCn2ncc(-c3nc(Nc4ccc(N5CCN(C)CC5)cn4)ncc3F)c21 | 0.0038 | 0.038 | 0.98 |  |  |  | 
CN1CCN(c2ccc(Nc3ncc(F)c(-c4cnn5c4CCCC5)n3)nc2)CC1 | 0.0036 | 0.04 | 2 |  |  |  | 
C[C@@H]1CCCCn2ncc(-c3nc(Nc4ccc(C5CCN(C)CC5)cn4)ncc3F)c21 | 0.0008 | 0.018 | 0.28 |  |  |  | 
C[C@@H]1CCCCn2ncc(-c3nc(Nc4ccc(N5CC6(CN(C)C6)C5)cn4)ncc3F)c21 | < 0.0003 | 0.0017 | 0.063 |  |  |  | 
CC(C)c1n[nH]cc1-c1ccnc(NC2CCCCC2)n1 | 0.018 | 0.45 | 0.024 | 0.022 |  |  | 
C[C@@H]1CCCCn2ncc(-c3nc(Nc4ccc(N5CCOCC5)cn4)ncc3F)c21 | 0.0004 | 0.0079 | 0.07 |  |  |  | 
C[C@@H]1CCCCn2ncc(-c3nc(Nc4ccc(N5CCC(N(C)C)CC5)cn4)ncc3F)c21 | 0.001 | 0.01 | 0.21 |  |  |  | 
C[C@@H]1CCCCn2ncc(-c3nc(Nc4ccc(N5CC6(CN(CCF)C6)C5)cn4)ncc3F)c21 | < 0.0003 | 0.0016 | 0.052 |  | 2.8 | 0.9 | 2
CN1CCN(c2ccc(Nc3ncc(F)c(-c4cnn5c4CCCCC5)n3)nc2)CC1 | 0.0018 | 0.024 | 1.3 |  |  |  | 
C[C@@H]1CCCCn2ncc(-c3nc(Nc4ccc(N5CC6(C5)CN(C5COC5)C6)cn4)ncc3F)c21 | 0.0004 | 0.0043 | 0.077 |  |  |  | 
COCCN1CCC(Nc2nccc(-c3cn[nH]c3C(C)C)n2)CC1 | 0.02 | 0.72 | 0.27 | 0.32 |  |  | 
